US8951747B2, “Method for modulating activity of T lymphocytes” (Ludwig Institute for Cancer Research, priority 2007, dated 2015)

Experiments:
Format in all cases: cell-based, human
[1] = system: CD8TL clone A10; experiment: IFN-γ production following antigenic stimulation; details: for ability to release IFN-γ upon antigenic stimulation: tetramer^low cells, day 4 after stimulation, incubated 2 hours, o-phenantholin 30 μM, lactose 100 mM, LacNAc 1 mM, sucrose 100 nM, vs untreated cells
Experimental: In addition to the experiments set forth, supra the effector capability of the T lymphocytes was tested, at various points during the period in which they were stimulated. Stimulation conditions are set forth in Example 1, supra. The effector activity was determined by contacting samples of 5000 CD8TLs with 2×10^5 HLA-A1 EBV-B cells which had been incubated for one hour with 1 μM of the peptide of SEQ ID NO: 1 at 37° C., and co-culturing the mixed sample, overnight. The amounts of IFN-γ and IL-2 resulting from the activation of the T cells were measured in the supernatants of the co-cultured cells via ELISAs.
(§1) To test this, cells of CD8TL clone A10 were collected, on days 0 and 4, after stimulation with HLA-A1^+, MAGE-3^+ tumor cells. Mean fluorescence indices were determined for both the high and low staining populations, on days 0 and 4. […] staining was carried out, as described supra, with cells that were either incubated with no test substance, or which had been incubated for 2 hours, on day 4, with one of o-phenantholin (30 μM), a known Zn chelator, lactose, (100 mM), LacNAc (1 mM), or sucrose (100 nM). The rationale behind the incubation with lactose, LacNAc, and sucrose is explained in Example 11. A final sample was incubated with swainsonin (0.5 μM) on day 0, before the cells were stimulated.
(§2) The cells were then washed, and analyzed for all of tetramer staining, proximity of the molecules via FRET, and IFN-γ production following antigenic stimulation.

[2] = system: CD8TL clone A10; experiment: HLA-peptide tetramer staining of tetramer^low CD8TLs; details: for tetramer staining (ability to bind tetramers): tetramer^low cells, day 4 after stimulation, incubated 2 hours, o-phenantholin 30 μM, lactose 100 mM, LacNAc 1 mM, sucrose 100 nM, vs untreated cells
Experimental: Fourteen days after the stimulation, the CD8TLs were then stained with complexes of HLA-A0101 folded with SEQ ID NO: 1, prepared as described by Coulie, et al., Proc. Natl. Acad. Sci. USA, 98:10290-10295 (2001), incorporated by reference. The complexes were biotinylated and then labeled with phycoerythrin (“PE”), using known methods. Staining was accomplished by incubating CD8TLs, for 10 minutes, at room temperature, with 5 nM of tetramer, and then washing.
as §1, §2

[3] = system: CD8TL clone A10; experiment: FRET analysis of TCR-CD8 proximity on tetramer^low CD8TLs; details: for FRET between TCR and CD8 (TCR-CD8 proximity): tetramer^low cells, day 4 after stimulation, incubated 2 hours, o-phenantholin 30 μM, lactose 100 mM, LacNAc 1 mM, sucrose 100 nM, vs untreated cells
Experimental: (§3) To elaborate, samples of 2×10^5 cells were washed in Hank's medium that had been supplemented with 1% human serum, and were then resuspended, in 50 μl of medium, which contained either an anti-TCRβ-PE antibody (the “donor” antibody), or an anti-CD8α-Alexa647 antibody (the “acceptor” antibody), or both. The former was diluted at 1/20 and the latter, at 1/300.
(§4) Samples were incubated for 30 minutes at 4° C., washed, and fixed with paraformaldehyde (2% w/v in PBS). Analysis was carried out on a FACS system, and transfer of fluorescence was calculated as FRET units, in accordance with Doucey, et al., J. Biol. Chem., 278:3257-3264 (2003), incorporated by reference. A FRET unit is defined as: [E3both−E3none]−[(E3A647−E3none)×(E2both/E2A647)]−[(E3PE−3none)×(E1both/E1PE)]
E1 is the fluorescence detected at 580 nm, following excitation at 488 nm. E2 is fluorescence detected at 670 nm, following excitation at 630 nm, and E3 is fluorescence detected at 670 nm following excitation at 488 nm.
After the molecules are excited at the donor level, transfer of energy from donor to acceptor happens only if the distance between two molecules is less than 10 nm, with energy transfer being measured by emission at the acceptor wavelength.
as §1, §2

[4] = system: TILs from ovarian cancer ascites; experiment: IFN-γ response of anergic TILs to stimulation; details: overnight incubation with 1 mM LacNAc
Experimental: It was confirmed by the fact that, notwithstanding overnight stimulation with a mixed population of tumor cells, B cells, and macrophages collected from the same ascites, or with allogenic EBV-β cells. IFNγ was not produced.
When these anergic TILs were incubated overnight with 1 mM LacNAc, their IFN-γ response increased more than 10 fold.

[5] = system: kidney infiltrating T cells isolated from the kidney allograft; experiment: IFN-γ production by functional kidney infiltrating T cells; details: LacNAc treatment; stimulation with allogeneic EBV-B cells or anti-CD3/CD28 beads
Text: A standard depletion strategy was used to isolate CD8^+ T cells from a breast carcinoma metastasis, ovarian carcinoma ascites, blood, and a kidney allograft that had been resected during a chronic rejection process.
As was noted supra, there was clear TCR CD8 FRET on kidney infiltrating T cells isolated from the kidney allograft. These T cells released IFN-γ upon stimulation with allogeneic EBV-B cells, or beads coated with anti-CD3/CD28 antibodies.
Different treatments were not, however, unspecific.

[6] = system: tetramer^low CD8TLs; experiment: IFN-γ release by tetramer^low CD8TLs treated with galectin-3 binders or neuraminidase; details: CD8TLs collected 3-4 days after stimulation
Experimental: To test this, tetramer^low CD8TLs, collected 3-4 days after stimulation, as described supra, were treated with LacNAc, a known competitive binder of galectin-3. Release of IFN-γ was restored.
These experiments were repeated testing two other galectin-3 binders, “tri-LacNAc,” and an antibody against the N-terminus of galectin-3.
The experiments described herein, using neuraminidase, were carried out on human CD8TLs, and the results parallel those observed by Kao, et al., Immunol., 17:1607-1617 (2005), on murine cells. It is hypothesized that a sialic acid residue may be present, near the LacNAc motif of galectin-binding proteins, and act to increase galectin-3 affinity.

[7] = system: CD8+ TILs from gastric carcinoma ascites; experiment: TCR CD8 FRET on CD8+ TILs; details: 1 mM LacNAc, 37° C., 5 hours of treatment; compared with tetramer^high CD8TL A10
Experimental: as §3, §4
These experiments tested the impact of N-acetyllactosamine (LacNAc) on colocalization. Gastric carcinoma ascites were screened for CD8^+ TILs, after they had been incubated for various time periods at 37° C., with 1 mM of LacNAc, and washed. As a control, the line CD8TL A10 was used, two weeks after its last antigenic stimulation.

[8] = swainsonin 0.5 μM added on day 0 before restimulation, read at day 4

c1cnc2c(c1)ccc1cccnc12 [o-phenantholin]
ability to release IFN-γ upon antigenic stimulation [1]: regained
tetramer staining (ability to bind tetramers) [2]: regained
FRET between TCR and CD8 (TCR-CD8 proximity) [3]: regained FRET exchanges between the 2 molecules

OC[C@H]1O[C@@H](O[C@H]2[C@H](O)[C@@H](O)C(O)O[C@@H]2CO)[C@H](O)[C@@H](O)[C@H]1O (stereo partly shown) [lactose]
ability to release IFN-γ upon antigenic stimulation [1]: higher ability to release IFN-γ
tetramer staining (ability to bind tetramers) [2]: higher degrees of tetramer staining
FRET between TCR and CD8 (TCR-CD8 proximity) [3]: higher FRET efficiencies

OC[C@H]1O[C@@](CO)(O[C@H]2O[C@H](CO)[C@@H](O)[C@H](O)[C@H]2O)[C@@H](O)[C@@H]1O [Sucrose, sucrose]
ability to release IFN-γ upon antigenic stimulation [1]: no effect
tetramer staining (ability to bind tetramers) [2]: no effect
FRET between TCR and CD8 (TCR-CD8 proximity) [3]: no effect

O[C@H]1[C@H]2[C@H](O)CCCN2C[C@H]1O [Swainsonin, swainsonin]
ability to release IFN-γ when restimulated ([1]; swainsonin 0.5 μM added on day 0 before restimulation): higher ability to release IFN-γ
tetramer staining [2, 8]: higher tetramer staining
FRET efficiency (TCR-CD8) [3, 8]: higher FRET efficiency

CC(=O)N[C@H]1C(O)O[C@H](CO)[C@@H](O[C@@H]2O[C@H](CO)[C@H](O)[C@H](O)[C@H]2O)[C@@H]1O (stereo partly shown) [LacNAc, N-acetyl lactosamine]
ability to release IFN-γ upon antigenic stimulation [1]: higher ability to release IFN-γ
increase of IFN-γ response to antigen stimulation [4]: more than 10 fold
IFN-γ production of kidney infiltrating T cells [5]: did not result in increased IFN-γ production
tetramer staining (ability to bind tetramers) [2]: higher degrees of tetramer staining
release of IFN-γ by tetramer^low CD8TLs [6]: restored
FRET between TCR and CD8 (TCR-CD8 proximity) [3]: higher FRET efficiencies
TCR CD8 FRET on TILs [7]: recovered the same level of TCR CD8 FRET
